Measured values reported in a melting point compilation (Tetko et al.).

Structure (SMILES)	melting point [°C]
Cc1ccc(C(=O)CC#N)cc1	102
Nc1nn2c(-c3ccccc3)cc(=O)[nH]c2c1/N=N/c1c(Br)cc(Br)cc1Br	316
CC(=O)C(C=N)c1ccccc1 (centres undefined)	96
CC(=O)OC(C)CC(C)C (centres undefined)	-64
CCCCCCCCCCCCCCC(C)C	4
CCOC(=O)C(O)(c1ccc(N)c(OC)c1)C(F)(F)F (centres undefined)	97 to 99
CC(C)[Si](C(C)C)(C(C)C)n1ccc2c(Br)cccc21	62 to 65
CC(CC(N)C(=O)O)C(F)(F)F (racemic)	273 to 275
Cc1c(C)c(C)c(N)c(C)c1C	152
O=[N+]([O-])c1ccccc1/C=C/c1ccccc1	73
COCc1nnc(S)s1	77 to 79
Cc1c[nH]c(-c2ccccc2)n1	175
O=C(C1=NOC2C(=O)N(c3ccccc3[N+](=O)[O-])C(=O)C12)c1ccc(Cl)cc1 (centres undefined)	173
CCCCc1ccc(/N=N/c2ccc(OC)cc2)cc1	31 to 48
c1ccc2cc(Nc3ccc4ccccc4c3)ccc2c1	172
COC(=O)c1ccccc1S(=O)(=O)Cl	62 to 63
ClCC=Cc1ccccc1	-19
CC(=O)Oc1cc2c(cc1Cl)C1(OC(=O)c3ccccc31)c1cc(Cl)c(OC(C)=O)cc1O2	239 to 246
CCCCCC(N)=O	101
Nc1cccc(C(F)(F)F)n1	88
CCOC(=O)CC[C@H](NC(=O)c1ccc(N)cc1)C(=O)OCC	141
CC(=O)OC(C(=O)c1ccccc1)c1ccccc1 (centres undefined)	82
c1ccc(SSc2ccccn2)nc1	58
CC(=O)Oc1ccc(C(=C2CCCCC2)c2ccc(OC(C)=O)cc2)cc1	136
Cc1ccc2cc3c(ccc4ccccc43)cc2c1	152
N#Cc1ccc2occc2c1	84 to 86

Structure (SMILES)	melting point [°C]
N#Cc1c(F)cccc1Sc1ccc(Cl)cc1	70
CC(=O)OC1CC2C(C)C(=O)C3(C(O)CC4C(C)(C)CCCC4(CO)C13)C2O (centres undefined)	120
c1ccc2sc(SSc3nc4ccccc4s3)nc2c1	180
NC(Cc1cc(I)c(Oc2ccc(O)c(I)c2)c(I)c1)C(=O)O (centres undefined)	236
CC1COc2ccccc2N1C(=O)C(Cl)Cl (centres undefined)	108
CSC(=CC(=C(C#N)C#N)c1ccc(Cl)cc1)SC	106 to 110
O=[N+]([O-])c1ccsc1	78.5
CCOC(=O)C(CO)(CO)C(=O)OCC	50
O=[N+]([O-])c1cc(Br)cc(Br)c1O	118 to 119
CCOC(=O)C(C)O (centres undefined)	-26
C=CC12CN(C)C3C4COC(CC41)C1(C(=O)Nc4ccccc41)C32 (centres undefined)	178
O=C(O)c1nn(Cc2ccc(Cl)cc2Cl)c2ccccc12	207
COc1ccccc1N1CCN(C(=O)c2ccc(N)cc2)CC1	212 to 214
FC(F)(F)C(F)(F)C(F)(F)C(F)(F)C(F)(F)C(F)(F)C(F)(F)C(F)(F)C(F)(F)C(F)(F)C(F)(F)C(F)(F)F	75 to 77
Nc1cc(-c2ccco2)[nH]n1	126
O=C(O)CC(CC(=O)O)C(=O)O	166
Cc1ccc2c(c1)C(c1ccccc1)C(c1ccccc1)N2 (centres undefined)	155
CCC(CC)COC(=O)CCCCCCCC(=O)OCC(CC)CC	-45
CC(=O)N1CCc2cc(S(=O)(=O)Cl)ccc21	172 to 174
O=C(O)C(F)F	-1
CS(=O)(=O)N1CCNCC1	99 to 100
CC(=O)OCC(=O)C1(O)CCC2C3CC(C)C4=CC(=O)C=CC4(C)C3C(O)CC21C (centres undefined)	206
Cc1noc(N)c1[N+](=O)[O-]	154 to 156
CCCCCCCC(=O)NN	88
COC(=O)c1cc2c(s1)-c1cc(Cl)ccc1SC2	158 to 160
CC1(C)CCC(=Cc2ccc(Cl)cc2)C1(O)Cn1cncn1 (centres undefined)	140

Structure (SMILES)	melting point [°C]
Oc1ccc(C(O)(c2ccccc2)c2ccc(O)c3ccccc23)c2ccccc12	232
C=Cc1cccc(C=C)c1	-52.3
O=CC(F)(F)C(F)(F)C(F)(F)C(F)(F)C(F)(F)C(F)(F)C(F)(F)C(F)(F)C=O	68 to 70.5
Clc1ccc(OCCBr)cc1	38 to 39
N#Cc1c(-c2ccccc2)c2c(O)[nH]n(-c3ccccc3)c-2nc1=S	142
Fc1ccc(-c2ccno2)cc1	55
CN(C)S(=O)(=O)c1cccc(C(=O)c2ccccc2)c1	82 to 84
CC(C)S(=O)(=O)c1cnc(-c2cccnc2)nc1N	225 to 228
CC12CCC(C(=C/O)/C1=N\NC(N)=O)C2(C)C (centres undefined)	205 to 206
Cc1nn(Cc2ccccc2)c(N)c1C#N	78
O=C(O)c1cnc2ccccc2c1	277 to 283
O=C1c2ccccc2C(=O)c2c(O)c(O)cc(O)c21	259
CCOC(=O)C=Cc1cc(C=CC(=O)OCC)c([N+](=O)[O-])cc1[N+](=O)[O-]	116
COc1ccc(OCC2CO2)cc1 (centres undefined)	47
COC(=O)c1[nH]c2ccccc2c1C(=O)OC	112 to 115
OCc1ccc(-c2ccncc2)cc1	173 to 176
CCCCCCCCCC(=O)CCCCCC	37
Cc1ccc(S(=O)(=O)N(C)Cc2ccc(N)cc2)cc1	155
O=C(CBr)c1ccco1	34
O=C(CC1(O)Cc2ccccc21)c1ccccc1 (centres undefined)	83 to 83.5
c1cnc2nc[nH]c2c1	148
CC12CCCC1C1CCC3CC(=O)CCC3(C)C1CC2 (centres undefined)	102
Cc1cc(Oc2ccc(N)cn2)cc(C)c1Cl	96 to 98
FC(F)(F)c1ccc(Br)cn1	40
C=C(O[Si](C)(C)C)c1c(C)c(C)c(C)c(C)c1C	41
Cc1ccc(NC(=O)C(O)C(O)C(=O)O)cc1 (single isomer, unassigned; (-))	191 to 192

Structure (SMILES)	melting point [°C]
Nc1nc(-c2ccc(Br)s2)cs1	170
Nc1c(F)cc(F)cc1Br	40
N#Cc1c(F)cccc1I	50
CC1C(=O)C23C(O)CC4C(C)(C)CCC(O)C4(C)C2C(O)CC1C3O (centres undefined)	282
CC(C)(C)OC(=O)NCCNc1ccc(C(F)(F)F)cc1N	129 to 132
COC(=O)[C@@H]1C[C@@H](O)CN1C(=O)OC(C)(C)C	91 to 96
CC(CCC(=O)O)C1CCC2C3CCC4CC(O)CCC4(C)C3CC(O)C12C (centres undefined)	177
C/C(=N/NC(N)=O)C(=O)Nc1ccccc1	236 to 238
CCCOC(=O)Cn1cc(I)c(=O)c(I)c1	186
Fc1cc(Br)c(Cl)c(Br)c1	86
Nc1ncc([N+](=O)[O-])cn1	237
S=C(Nc1ccccc1)C(=S)Nc1ccccc1	134 to 135
O=C1C=C(Cl)C(=O)C(Cl)=C1	123
C1CCCCCCCCCC1	-7
O=C(c1ccccc1)c1cccc(O)c1	117 to 119
Cc1ccc([N+](=O)[O-])c(CCl)c1	41 to 47
N#CCC(=O)c1ccc(N)cc1	159
COc1cc(C)c(Cl)cc1S(N)(=O)=O	170
ON=CC=Cc1ccccc1	115 to 125
CC(=O)OC1CCC2(C)C(=CCC3C2CCC2(C)C(C(C)=O)CCC32)C1 (centres undefined)	149 to 152
N=C(NCCCC(N)C(=O)O)N[N+](=O)[O-] (centres undefined)	257
CCS(=O)(=O)C(C)(C)S(=O)(=O)CC	126
C1CSC2=C(S1)SC(=C1SC3=C(SCCS3)S1)S2	244
CCCCCCCCCCF	-35
O=[N+]([O-])c1cc(Cl)c(Cl)cc1Cl	57.5
Cc1ccccc1-c1ccccc1P(C(C)(C)C)C(C)(C)C	91.5

Structure (SMILES)	melting point [°C]
CCCCCCCCCCS	-26
CC(=O)c1ccc(NC(=O)c2ccccc2)c(C(=O)c2ccccc2)c1	177
Nc1ccc(Cn2ccnc2)cc1	128 to 130
O=CNc1ccc(C2=NNC(=O)CC2)cc1	253 to 256
NNC(=O)C(=O)NN	239 to 243
Nc1ccc(CN2CCCC2)cc1	46 to 48
O=Cc1ccccc1-c1ccccc1C(=O)O	128 to 133
NC(=S)NNC(N)=S	200 to 203
NC(=O)Cc1ccc(O)cc1	176 to 180
CC(CCC(=O)O)C1CCC2C3CCC4C(Br)C(=O)CCC4(C)C3CCC12C (centres undefined)	190
COC(=O)c1sc2scc(C)c2c1C	136 to 139
Cn1ccc(-c2ccc(C(=O)Oc3c(F)c(F)c(F)c(F)c3F)cc2)n1	122 to 124
NC(=O)CCC(N)=O	260 to 265
COc1cc(Cc2cnc(N)nc2N)cc(OC)c1Br	226
Cc1c(Cc2c(C)n(C)n(-c3ccccc3)c2=O)c(=O)n(-c2ccccc2)n1C	155
O=C(O)c1cc(I)ccc1Br	175
CC(C)Cc1ccc(C(C)C(=O)O)cc1 (centres undefined)	75
Cc1ccc(S(=O)(=O)NCCNS(=O)(=O)c2ccc(C)cc2)cc1	160
Nc1nc(-c2ccc(Cl)cc2)cs1	169
CC(=O)c1cc(Cl)c(C)cc1O	70 to 73
CC(C)Cc1ccc(CC(=O)O)cc1	86
CC(=O)Nc1ccccc1-c1onc(-c2ccccc2)c1-c1ccccc1	190
CC(=O)Oc1ccc2c(c1)Oc1cc(OC(C)=O)ccc1C21OC(=O)c2ccccc21	200 to 205
O=C(O)c1ccc([N+](=O)[O-])c(F)c1	175
CC(C)(C)NC(=O)NN	119 to 120
